Calls of active or inactive are those of the source. Peptide text beside a SMILES is read from it.
Legend:
[1] = system: Salmonella typhimurium; assay: Antibacterial activity against Salmonella typhimurium DT104 infected in ICR mouse model assessed as increase in ZO-1 expression in villous at 20 mg/kg, ip administered for 3 days and measured on day 7 […] by immunohistochemistry analysis; type: functional, organism-based; details: Salmonella enterica subsp. enterica serovar Typhimurium, time 7.0 day
[2] = system: Salmonella typhimurium; assay: Antibacterial activity against Salmonella typhimurium DT104 infected in ICR mouse model assessed as reduction in bacterial translocation to spleen at 2 mg/kg, ip administered for 3 days and measured on day 7 by serial dilution method; type: functional, organism-based; details: Salmonella enterica subsp. enterica serovar Typhimurium, time 7.0 day
[3] = system: RAW264.7; assay: Inhibition of LPS-stimulated IL-1beta production in mouse RAW264.7 cells at 1 to 128 ug/ml incubated for 24 hrs by ELISA analysis; type: functional, cell-based; details: dose 1-128 µg/ml
[4] = system: Salmonella typhimurium; assay: Antibacterial activity against multi-drug resistant Salmonella typhimurium DT104 assessed as inhibition of bacterial growth measured upto 120 mins by MH agar based serial dilution method; type: functional, organism-based; details: Salmonella enterica subsp. enterica serovar Typhimurium

C[C@@H](O)[C@H](NC(=O)[C@H](CS)NC(=O)[C@H](CCCCN)NC(=O)[C@H](Cc1c[nH]c2ccccc12)NC(=O)[C@H](CCCCN)NC(=O)[C@@H](N)Cc1c[nH]c2ccccc12)C(=O)N[C@@H](CCCCN)C(=O)N[C@@H](CO)C(=O)NCC(=O)N[C@@H](CS)C(=O)N[C@@H](CCCCN)C(=O)N[C@@H](Cc1c[nH]c2ccccc12)C(=O)N[C@@H](CCCCN)C(=O)N[C@@H](Cc1c[nH]c2ccccc12)C(N)=O (H-WKWKCTKSGCKWKW-NH2)
active: Activity [1] | Activity [2] | inhibition [3] | Activity [4] Dose-Dependent Effect

Reference: ChEMBL document CHEMBL5352429, “Designed symmetrical β-hairpin peptides for treating multidrug-resistant salmonella typhimurium infections” (Eur J Med Chem, 2022)
